Series [1] concerns Plasmodium falciparum. As to the kind of experiment: Antimalarial activity against Plasmodium falciparum ring stage forms after 48 hrs. Type of series: functional.
Series [2] is described as follows: Cytotoxicity against Schizosaccharomyces pombe Var. Paul Linder 3360 assessed as cell viability at 10 ug/ml after 16 to 18 hrs by trypan blue staining-based compound microscopic analysis (reference value: 93.67 +/- 1.53%). The note with it: Schizosaccharomyces pombe Var. Paul Linder 3360 cells, read-out: Activity.
Series [3] is described as follows: Cytotoxicity against Schizosaccharomyces pombe Var. Paul Linder 3360 assessed as cell viability at 4 ug/ml after 16 to 18 hrs by trypan blue staining-based compound microscopic analysis (reference value: 93.67 +/- 1.53%). The settings on record: Schizosaccharomyces pombe Var. Paul Linder 3360 cells, read-out: Activity.
The test system of series [4] is Schizosaccharomyces pombe. Put plainly: Genotoxicity in Schizosaccharomyces pombe Var. Paul Linder 3360 assessed as DNA damage at 2 to 10 ug/ml after 17 to 18 hrs by agarose gel electrophoresis analysis.
Series [5] is described as follows: Cytotoxicity against Schizosaccharomyces pombe Var. Paul Linder 3360 assessed as cell viability at 2 ug/ml after 16 to 18 hrs by trypan blue staining-based compound microscopic analysis (reference value: 93.67 +/- 1.53%). The note with it: Schizosaccharomyces pombe Var. Paul Linder 3360 cells, read-out: Activity.
Series [6] in a line: Cytotoxicity against Schizosaccharomyces pombe Var. Paul Linder 3360 assessed as cell viability at 6 ug/ml after 16 to 18 hrs by trypan blue staining-based compound microscopic analysis (reference value: 93.67 +/- 1.53%). The note with it: Schizosaccharomyces pombe Var. Paul Linder 3360 cells, read-out: Activity.
For series [7], the system named is Candida albicans. Put plainly: Antifungal activity against Candida albicans MTCC 227 incubated for overnight by broth micro dilution method. Type of series: functional.
In series [8] the test system is Escherichia coli. Put plainly: Antimicrobial activity against Escherichia coli MTCC 443 incubated for overnight by broth micro dilution method. The series is classed as functional.
The nature of series [9]: Cytotoxicity against Schizosaccharomyces pombe Var. Paul Linder 3360 assessed as cell viability at 8 ug/ml after 16 to 18 hrs by trypan blue staining-based compound microscopic analysis (reference value: 93.67 +/- 1.53%). The settings on record: Schizosaccharomyces pombe Var. Paul Linder 3360 cells, read-out: Activity.
Series [10] has as its system Staphylococcus aureus. As to the kind of experiment: Antimicrobial activity against Staphylococcus aureus MTCC 96 incubated for overnight by broth micro dilution method. Type of series: functional.
For series [11], the system named is Aspergillus clavatus. Put plainly: Antifungal activity against Aspergillus clavatus MTCC 1323 incubated for overnight by broth micro dilution method. Type of series: functional.
In series [12] the target is T1, Dihydrofolate reductase (Bos taurus, UniProt P00376).
T1 sequence (P00376 whole entry): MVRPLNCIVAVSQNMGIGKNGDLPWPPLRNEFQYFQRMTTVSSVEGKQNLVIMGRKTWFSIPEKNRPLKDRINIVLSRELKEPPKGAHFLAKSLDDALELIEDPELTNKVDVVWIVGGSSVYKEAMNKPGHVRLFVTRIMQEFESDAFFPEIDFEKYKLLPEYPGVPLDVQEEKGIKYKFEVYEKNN
Put plainly: Inhibition of bovine liver DHFR pre-incubated 2 mins before dihydrofolic acid substrate addition and measured over 10 mins in presence of NADPH.

The test system of series [13] is Pseudomonas aeruginosa. As to the kind of experiment: Antimicrobial activity against Pseudomonas aeruginosa MTCC 1688 incubated for overnight by broth micro dilution method. The series is classed as functional.
Series [14] deals with Streptococcus pyogenes. Put plainly: Antimicrobial activity against Streptococcus pyogenes MTCC 442 incubated for overnight by broth micro dilution method. Type of series: functional.
For series [15], the system named is Aspergillus clavatus. The note with it: MTCC 1323.

Experimental findings from ChEMBL document CHEMBL4052693, “1,2,4-Triazole and 1,3,4-oxadiazole analogues: Synthesis, MO studies, in silico molecular docking studies, antimalarial as DHFR inhibitor and antimicrobial activities” (Bioorg Med Chem, 2017) are described below.

In brackets after ≈: the same amount, converted by molar mass. Activity calls are given as the source filed them. The rule behind the calls is not given here.

As a reminder, the IC50 is the concentration that gives 50% inhibition. For orientation: MIC99 means an inhibitory concentration at the 99% level, which refers to growth in some studies and to a panel of isolates in others. Regarding `O=[N+]([O-])c1cccc(/C=N/c2ccc(-c3nnc(S)n3/N=C/c3cccc([N+](=O)[O-])c3)cc2)c1`, the results for the 50% inhibitory concentration (IC50) in series [1] and in series [12] were 245 nM and 25.9 nM, respectively. Besides, the viability at 10 ug/ml in series [2] stood at 59.7%. Also, the viability at 4 ug/ml in series [3] stood at 80%. Moreover, the Activity entry in series [4] is “Toxic”. For the same compound, in [5], the viability at 2 ug/ml is 87%. Besides, the viability at 6 ug/ml in [6] stood at 73.7%. Moreover, the MIC99 came to 1060 µM (≈ 500 µg/mL) in [7]; 423 µM (≈ 200 µg/mL) in [8]; 264 µM (≈ 125 µg/mL) in series [10]; 2110 µM (≈ 1000 µg/mL) in series [11]; 528 µM (≈ 250 µg/mL) in series [13]; 132 µM (≈ 62.5 µg/mL) in [14]. For the same compound, in series [9], the viability at 8 ug/ml turned out to be 65.3%.
Regarding `Sc1nnc(-c2ccc(/N=C/c3ccc(Cl)cc3)cc2)n1/N=C/c1ccc(Cl)cc1`, the IC50 in series [1] was 230 nM; in [12], 34.9 nM. Besides, the viability at 10 ug/ml in series [2] worked out at 47%. In addition, in [3], the viability at 4 ug/ml stood at 72.3%. The Activity entry in series [4] is recorded as “Toxic”. Moreover, the viability at 2 ug/ml in series [5] was 83.3%. For the same compound, the viability at 6 ug/ml in series [6] came out at 62.3%. Moreover, the MIC99 result in series [7] and in [15] was “inactive” each time. The MIC99 in series [8] worked out at 554 µM (≈ 251 µg/mL); in series [10], 554 µM (≈ 251 µg/mL); in series [13] it was 222 µM (≈ 100 µg/mL); in [14], 222 µM (≈ 100 µg/mL). In addition, in series [9], the viability at 8 ug/ml came out at 55.7%.
Regarding `Sc1nnc(-c2ccc(/N=C/c3ccc(Cl)cc3)cc2)o1`, the concentration for half-maximal inhibition (IC50) in series [1] came out at 301 nM; in series [12], 45 nM. Also, the viability at 10 ug/ml in series [2] was 47%. Besides, the viability at 4 ug/ml in [3] amounted to 73.3%. Besides, the Activity entry in series [4] is “Toxic”. Further, the viability at 2 ug/ml in series [5] was 81.3%. Besides, in [6], the viability at 6 ug/ml was 64.7%. In addition, the MIC99 result in series [7] and in [15] was “inactive” throughout. Further, the MIC99 came out at 635 µM (≈ 201 µg/mL) in [8], 794 µM (≈ 251 µg/mL) in series [10], 397 µM (≈ 125 µg/mL) in series [13] and 397 µM (≈ 125 µg/mL) in series [14]. Further, the viability at 8 ug/ml in series [9] stood at 54.7%.
